The target in one data set is integrin αvβ6 (Homo sapiens, UniProt P06756+P18564). The experiment in a line: integrin αvβ6-mediated cell attachment to ligand. In kind it is cell-based. Conditions: mean and SD, at least 3 independent assays, read-out: IC50, inhibition of αvβ6-mediated cell attachment. The method, then:
The RGD peptidomimetic CWHM‐12 was synthesized as described in detail previously (Henderson et al., 2013). A close structural analog of this compound with improved oral bioavailability, CWHM‐680, was also synthesized at Saint Louis University. Potency for the compounds in blocking cell attachment mediated by integrins αvβ3, αvβ5, and αvβ6 was measured as previously described (Henderson et al., 2013). Potency for blocking cell attachment mediated by integrins αvβ1, αvβ8, and α8β1 was measured using modifications of this method which are briefly summarized as follows: To assess CWHM‐12 and CWHM‐680 effects on cellular αvβ1 function, we varied its concentration in an assay measuring binding of HEK‐293 cells, which naturally express this integrin (Nagarajan et al., 2007), to the surface of 96‐well plates coated with purified recombinant human TGFβ‐1 latency‐associated peptide (R&D Systems). To assess the effect on cellular αvβ8 function, we performed the assay with the same LAP ligand but with HEK‐293 cells which had been stably transfected to overexpress this integrin. To assess the effect on cellular α8β1 function, we performed the assay using HEK‐293 cells, which had been stably transfected to overexpress this integrin and used purified recombinant mouse nephronectin as the immobilized ligand (R&D Systems). […]

The subject of data set [1] is aristolochic acid-induced kidney injury in ICR mice. The experiment in a line: aristolochic acid kidney injury model, serum creatinine. In kind it is in vivo, mouse. The note with it: AA-injured mice, 100 mg/kg/day s.c. minipump; vehicle 0.32. The method, then: (§1) Alzet osmotic minipumps (Cupertino, CA) were implanted subcutaneously in 8‐ to 10‐week‐old wild‐type male ICR outbred mice (Envigo) one day prior to induction of kidney injury to deliver vehicle (DMSO/H2O 1:1) or CWHM‐12 at a dose of 100 mg/kg per day. A single 5 mg/kg dose of aristolochic acid I sodium salt (Sigma‐Aldrich, A9451) in PBS was administered intraperitoneally to induce kidney injury, and mice were monitored daily for 27 days thereafter. Control (uninjured) mice were injected with an equal volume of PBS. Blood was obtained by maxillary vein puncture on days 0, 5 (peak injury), and 28 (study endpoint). For testing CWHM‐680, oral gavage (100 mg/kg per day) was started one day prior to injection of aristolochic acid I sodium salt and continued once daily until the study endpoint. Blood was obtained at days 0, 7, and 23 (study endpoint). […] Serum creatinine was measured by liquid chromatography–mass spectrometry (LC–MS/MS) at the University of Alabama O’Brien Center Bioanalytical Core. CWHM‐12 and CWHM‐680 concentrations were measured in plasma samples by liquid chromatography–tandem mass spectrometry (LC/MS/MS) using compound spiked into control plasma as a standard. All experiments were performed under protocols approved by the Institutional Animal Care and Use Committee at St. Louis University.

Data set [2] has as its system aristolochic acid-induced kidney fibrosis in ICR mice. Kind of data set: aristolochic acid kidney injury model, kidney histology and immunofluorescence. The format is in vivo, mouse. The note with it: AA-injured, 100 mg/kg/day s.c. minipump. How it is done:
as §1
Harvested kidneys were bisected and harvested for RNA and protein, and fixed in 4% PFA for antibody staining and histological staining with Sirius red or Masson's trichrome. Paraffin sections (4 µm) were stained with Sirius red or Masson trichrome and imaged with polarized light and bright‐field illumination. For immunofluorescence, 7‐μm frozen sections were washed with ice‐cold 100% methanol, boiled in 10 mM citric acid (pH 6) for 20 min, and incubated with primary antibodies against αSMA (Millipore), PDGFR‐β (gift from B. Stallcup), or with biotin‐LTL (Vector Laboratories). Reactivity was detected using fluorescently labeled secondary antibodies. Sections were counterstained with DAPI (Sigma‐Aldrich), mounted in Mowiol 4–88 (Poly Sciences), and digital images acquired using a Leica DM5000B epifluorescence microscope and Leica DFC365FX camera. To quantify percent area stained for Sirius red, PDGFR‐β, and α‐SMA, we analyzed images from each of at least 4 biological replicates by batch processing using a macro created in Image J. Images were converted to 8‐bit grayscale, the threshold adjusted, and percent area measured. To quantify intact proximal tubules with brush borders, LTL‐positive tubules were counted by an observer blinded to the experimental conditions using Image J.

In data set [3] the test system is pro-fibrotic gene expression in kidney. The experiment in a line: aristolochic acid kidney injury model, kidney qRT-PCR. The format is in vivo, mouse. The note with it: AA-injured, 100 mg/kg/day s.c. minipump, day 27; vehicle 32-fold. How it is done:
as §1, with “University. […]” for “University.”

Data set [4] is described as follows: plasma compound concentration by LC/MS/MS. In kind it is in vivo, mouse. The note with it: 100 mg/kg per day s.c. by Alzet minipump. The method, then: as §1
Data set [5] can be described thus: observation of deleterious effects in treated animals. The format is in vivo, mouse. The note with it: 100 mg/kg/day s.c. minipump, 28 days. The method, then: as §1

Where two headings read alike, the source gives them in different places.

Sequence of integrin αvβ6 (P06756 31-889 limits assumed): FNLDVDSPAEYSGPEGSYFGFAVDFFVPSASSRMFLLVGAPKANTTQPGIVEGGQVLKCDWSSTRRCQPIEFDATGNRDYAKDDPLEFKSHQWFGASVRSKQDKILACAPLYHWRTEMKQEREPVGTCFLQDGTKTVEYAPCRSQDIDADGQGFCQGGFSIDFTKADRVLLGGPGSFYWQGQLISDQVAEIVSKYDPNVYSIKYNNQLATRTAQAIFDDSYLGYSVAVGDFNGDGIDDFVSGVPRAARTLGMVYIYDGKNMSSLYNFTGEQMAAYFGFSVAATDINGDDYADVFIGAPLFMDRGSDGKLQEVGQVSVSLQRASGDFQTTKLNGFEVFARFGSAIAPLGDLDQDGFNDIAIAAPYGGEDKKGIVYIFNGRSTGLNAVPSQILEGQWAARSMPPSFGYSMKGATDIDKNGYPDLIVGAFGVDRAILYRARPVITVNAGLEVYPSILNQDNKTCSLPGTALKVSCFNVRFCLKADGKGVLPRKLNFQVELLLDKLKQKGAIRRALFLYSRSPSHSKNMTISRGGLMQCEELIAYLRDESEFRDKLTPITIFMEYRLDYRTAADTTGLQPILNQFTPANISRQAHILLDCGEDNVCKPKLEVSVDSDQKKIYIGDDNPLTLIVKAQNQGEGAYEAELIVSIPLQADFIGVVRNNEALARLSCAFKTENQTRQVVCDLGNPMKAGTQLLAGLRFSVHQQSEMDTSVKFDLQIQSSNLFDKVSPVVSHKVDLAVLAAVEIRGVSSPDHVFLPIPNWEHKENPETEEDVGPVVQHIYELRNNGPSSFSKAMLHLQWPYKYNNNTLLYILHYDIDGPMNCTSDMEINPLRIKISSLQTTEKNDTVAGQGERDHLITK
Sequence of integrin αvβ6 (P06756 891-1048 partner limits assumed): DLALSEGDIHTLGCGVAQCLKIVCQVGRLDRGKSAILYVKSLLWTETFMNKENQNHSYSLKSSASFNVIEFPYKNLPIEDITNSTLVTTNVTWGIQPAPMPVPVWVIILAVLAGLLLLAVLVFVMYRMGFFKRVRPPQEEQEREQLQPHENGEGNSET
Sequence of integrin αvβ6 (P18564 22-788): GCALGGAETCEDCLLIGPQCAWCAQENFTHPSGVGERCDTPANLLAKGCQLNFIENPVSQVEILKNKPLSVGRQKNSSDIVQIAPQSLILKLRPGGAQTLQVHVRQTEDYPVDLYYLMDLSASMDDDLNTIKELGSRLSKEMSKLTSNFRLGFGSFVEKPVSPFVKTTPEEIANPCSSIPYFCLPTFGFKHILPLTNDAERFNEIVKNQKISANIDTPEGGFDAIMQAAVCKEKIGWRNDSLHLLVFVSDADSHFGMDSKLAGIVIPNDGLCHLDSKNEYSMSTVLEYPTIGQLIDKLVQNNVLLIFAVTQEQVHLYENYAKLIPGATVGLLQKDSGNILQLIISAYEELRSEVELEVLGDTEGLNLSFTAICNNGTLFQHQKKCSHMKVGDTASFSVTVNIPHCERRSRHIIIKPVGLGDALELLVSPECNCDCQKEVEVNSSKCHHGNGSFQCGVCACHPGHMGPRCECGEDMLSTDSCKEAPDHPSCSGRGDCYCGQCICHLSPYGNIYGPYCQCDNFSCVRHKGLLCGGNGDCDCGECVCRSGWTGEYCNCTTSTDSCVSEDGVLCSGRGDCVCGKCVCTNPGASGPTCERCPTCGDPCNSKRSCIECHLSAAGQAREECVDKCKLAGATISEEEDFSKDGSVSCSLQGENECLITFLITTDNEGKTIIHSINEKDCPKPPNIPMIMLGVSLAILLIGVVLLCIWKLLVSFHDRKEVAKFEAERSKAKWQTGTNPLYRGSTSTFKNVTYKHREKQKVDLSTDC

With `CC(C)(C)c1cc(Br)cc([C@H](CC(=O)O)NC(=O)CNC(=O)c2cc(O)cc(NC3=NCC(O)CN3)c2)c1` (some centres unmarked) [CWHM‐12], the IC50 on integrin αvβ6 (listed as CWHM−12) was determined as 0.31 ± 0.14 nM. The IC50 on integrin αvβ6 is under 1 nM. The “serum creatinine at day 27” value in data set [1] turned out to be 0.15 mg/dL. In data set [2], the “Masson trichrome staining, collagen deposition vs vehicle” value is “reduced collagen deposition”; the “reduction in percent area stained for PDGFR‐β vs vehicle” value is on record as 44%; the “reduction in percent area stained for αSMA vs vehicle” value stood at 45%. Moreover, the “reduction in percent area stained by Sirius red vs vehicle” value in data set [2] (day 27) came out at 68%. The “number of intact proximal tubules (LTL staining)” value in data set [2] (27 days, vehicle 40.9 ± 1.6) was found to be 57.1 ± 1.7. Besides, the “Col1a1 mRNA expression increase by qRT-PCR compared with uninjured animals” value in data set [3] is 9 fold. Also, in data set [4], the “mean steady plasma drug concentration” value was “approximately 5 µg/ml”. Also, the “obvious deleterious effects in treated animals” value in data set [5] is given as “did not observe obvious deleterious effects”.

The term IC50 denotes the concentration that gives 50% inhibition.

The record behind these values is PMC7153038, “Pharmacologic inhibition of RGD‐binding integrins ameliorates fibrosis and improves function following kidney injury” (Physiological Reports, 2020).
